Tests used:
Format in all cases: in vivo
[1] = test system: ducksalad (Heteranthera limosa); experiment: Test B flooded paddy test; details: 250 g ai/ha, Flood; visual rating on scale of 0 to 100 where 0 is no effect and 100 is complete control; 13 to 15 d after treatment
In short: (§1)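 Ratings use a 0-100 visual scale, where 100 is complete control, and compare treated plants with controls after 13 to 15 d of greenhouse growth. Compound went straight into paddy water kept 3 cm over the soil surface, applied to seedlings at the 2-leaf stage.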

[2] = test system: barnyardgrass (Echinochloa crus-galli); experiment: Test B flooded paddy test; details: 250 g ai/ha, Flood; visual rating on scale of 0 to 100 where 0 is no effect and 100 is complete control; 13 to 15 d after treatment
In short: as §1

[3] = test system: rice (Oryza sativa); experiment: Test B flooded paddy test; details: 250 g ai/ha, Flood; visual rating on scale of 0 to 100 where 0 is no effect and 100 is complete control; 13 to 15 d after treatment
In short: as §1

[4] = test system: sedge, umbrella (small-flower umbrella sedge, Cyperus difformis); experiment: Test B flooded paddy test; details: 250 g ai/ha, Flood; visual rating on scale of 0 to 100 where 0 is no effect and 100 is complete control; 13 to 15 d after treatment
In short: as §1

[5] = test system: oat, wild (wild oat, Avena fatua); experiment: Test C greenhouse herbicide test, postemergence
In short: (§2)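 Steps: pot plants in peat-based medium; spray postemergence at 1- to 4-leaf stage; hold in greenhouse 13 to 15 d; score visually against controls from 0 (no effect) to 100 (complete control).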

[6] = test system: chickweed (common chickweed, Stellaria media); experiment: Test C greenhouse herbicide test, postemergence
In short: as §2

[7] = test system: kochia (Kochia scoparia); experiment: Test C greenhouse herbicide test, postemergence
In short: as §2

[8] = test system: barnyardgrass (Echinochloa crus-galli); experiment: Test A greenhouse herbicide test, pre- and postemergence
In short: (§3)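 Visual injury ratings, 0 (no effect) to 100 (complete control), versus untreated plants after roughly 10 d in a greenhouse. Compounds, formulated in a surfactant-containing non-phytotoxic solvent, were sprayed on loam–sand soil after sowing (pre) or on one- to two-leaf plants 2–10 cm tall (post).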

[9] = test system: foxtail, giant (giant foxtail, Setaria faberii); experiment: as above
In short: as §3

[10] = test system: corn (Zea mays); experiment: as above; details: Postemergence
In short: as §3

[11] = test system: ragweed (common ragweed, Ambrosia elatior); experiment: as above
In short: as §3

[12] = test system: kochia (Kochia scoparia); experiment: as above
In short: as §3

[13] = Postemergence, 31 g ai/ha, scale 0 to 100 (0 no effect, 100 complete control)
[14] = Postemergence, 62 g ai/ha, 0 to 100 scale (0 no effect, 100 complete control)
[15] = Postemergence, 250 g ai/ha, scale 0 to 100, 0 no effect, 100 complete control, 13 to 15 d
[16] = postemergence, 125 g ai/ha, scale 0 to 100, 0 no effect, 100 complete control
[17] = Postemergence, 125 g ai/ha, 0 to 100 scale where 0 is no effect and 100 is complete control
[18] = Postemergence, 500 g ai/ha, visual rating after approx. 10 d, 0 to 100 scale (0 no effect, 100 complete control)
[19] = Preemergence, 125 g ai/ha, 0 to 100 scale where 0 is no effect and 100 is complete control
[20] = Preemergence, 500 g ai/ha, 0 to 100 scale where 0 is no effect and 100 is complete control
[21] = 500 g ai/ha, visual rating after approx. 10 d, 0 to 100 scale (0 no effect, 100 complete control)
[22] = Postemergence, 250 g ai/ha, scale 0 to 100, 0 is no effect, 100 is complete control
[23] = Postemergence, 125 g ai/ha, 0 to 100 scale, 0 no effect, 100 complete control
[24] = Preemergence, 125 g ai/ha, visual injury rating, 0 to 100 scale (0 no effect, 100 complete control), approx. 10 d

CC(=O)Oc1c(C)nn(C)c(=O)c1-c1c(C)sc2ccc(C(F)(F)F)cc12 [Compound 132]
Plant response rating, Ducksalad [1]: 0
Plant response rating, Barnyardgrass [2]: 0
Plant response rating, Rice [3]: 0
Plant response rating, Sedge, Umbrella [4]: 0
Plant response rating, Oat, Wild [5, 13]: 40
Oat, Wild plant response rating [5, 14]: 60
Plant response rating, Oat, Wild [5, 15]: 90
Oat, Wild plant response rating [5, 16]: 70
Plant response rating, Chickweed [6, 13]: 90
Chickweed plant response rating [6, 14]: 90
Plant response rating, Chickweed [6, 15]: 95
Chickweed plant response rating [6, 16]: 95
Plant response rating, Kochia [7, 13]: 85
Kochia plant response rating [7, 14]: 90
Plant response rating, Kochia [7, 15]: 95
Kochia plant response rating [7, 16]: 95
Plant response rating, Barnyardgrass [8, 17]: 0
Plant response rating, Barnyardgrass [8, 18]: 30
Barnyardgrass plant response rating [8, 19]: 0
Plant response rating, Barnyardgrass [8, 20]: 70
Plant response rating, Foxtail, Giant [9, 17]: 60
Plant response rating, Foxtail, Giant [9, 18]: 80
Foxtail, Giant plant response rating [9, 19]: 70
Plant response rating, Foxtail, Giant [9, 20]: 90
Plant response rating, Corn ([10]; 125 g ai/ha, 0 to 100 scale where 0 is no effect and 100 is complete control): 0
Plant response rating, Corn [10, 21]: 10
Plant response rating, Ragweed [11, 17]: 100
Plant response rating, Ragweed [11, 18]: 100
Ragweed plant response rating [11, 19]: 80
Plant response rating, Ragweed [11, 20]: 90
Plant response rating, Kochia [12, 17]: 50
Plant response rating, Kochia [12, 18]: 80
Kochia plant response rating [12, 19]: 60
Plant response rating, Kochia [12, 20]: 90

Cc1nn(C)c(=O)c(-c2c([N+](=O)[O-])ccc3ccccc23)c1O [Compound 165]
Plant response rating, Ducksalad [1]: 0
Plant response rating, Barnyardgrass [2]: 0
Plant response rating, Rice [3]: 0
Plant response rating, Sedge, Umbrella [4]: 0
Plant response rating, Oat, Wild [5, 13]: 40
Oat, Wild plant response rating [5, 14]: 45
Plant response rating, Oat, Wild [5, 22]: 70
Oat, Wild plant response rating [5, 16]: 65
Plant response rating, Chickweed [6, 13]: 70
Chickweed plant response rating [6, 14]: 90
Plant response rating, Chickweed [6, 22]: 98
Chickweed plant response rating [6, 16]: 95
Plant response rating, Kochia [7, 13]: 45
Kochia plant response rating [7, 14]: 40
Plant response rating, Kochia [7, 22]: 90
Kochia plant response rating [7, 16]: 85
Plant response rating, Barnyardgrass [8, 23]: 20
Plant response rating, Barnyardgrass [8, 18]: 30
Plant response rating, Barnyardgrass [8, 24]: 10
Plant response rating, Barnyardgrass [8, 20]: 30
Plant response rating, Foxtail, Giant [9, 23]: 20
Plant response rating, Foxtail, Giant [9, 18]: 50
Plant response rating, Foxtail, Giant [9, 24]: 10
Plant response rating, Foxtail, Giant [9, 20]: 40
Plant response rating, Corn ([10]; 125 g ai/ha, 0 to 100 scale, 0 no effect, 100 complete control): 0
Plant response rating, Corn [10, 21]: 20
Plant response rating, Ragweed [11, 23]: 90
Plant response rating, Ragweed [11, 18]: 90
Plant response rating, Ragweed [11, 24]: 50
Plant response rating, Ragweed [11, 20]: 90
Plant response rating, Kochia [12, 23]: 60
Plant response rating, Kochia [12, 18]: 90
Plant response rating, Kochia [12, 24]: 60
Plant response rating, Kochia [12, 20]: 100
